Source: BindingDB's records for doi:10.1021/jm9903242 (Agouron Pharmaceuticals, 2000)

Test: Antiviral activity using H1HeLa cells (ATCC) infected with HRV-14

| EC50 [µM] | Structure (SMILES) |
| --- | --- |
| > 20 | NC(=O)c1ccc2c(c1)C=CC2=O [1-Oxo-1H-indene-5-carboxylic acid amide] |
| > 100 | CCOC(=O)/C=C/c1cc(O)cc(C(N)=O)c1 [3-(3-Carbamoyl-5-hydroxy-phenyl)-acrylic acid ethyl ester] |
| > 100 | CCOC(=O)/C=C/c1cc(CO)cc(C(N)=O)c1 [3-(3-Carbamoyl-5-hydroxymethyl-phenyl)-acrylic acid ethyl ester] |
| > 100 | CCOC(=O)/C(C#N)=C/c1cccc(C(N)=O)c1 [3-(3-Carbamoyl-phenyl)-2-cyano-acrylic acid ethyl ester] |
| 20 | NC(=O)c1cccc(/C=C/C(=O)OCCO)c1 [3-(3-Carbamoyl-phenyl)-acrylic acid 2-hydroxy-ethyl ester] |
| 5.6 | NC(=O)c1cccc(/C=C/C(=O)OCc2ccccc2)c1 [3-(3-Carbamoyl-phenyl)-acrylic acid benzyl ester] |
| 15.9 | CCOC(=O)/C=C/c1cccc(C(N)=O)c1 [3-(3-Carbamoyl-phenyl)-acrylic acid ethyl ester] |
| 150 | COC(=O)/C=C/c1cccc(C(N)=O)c1 [3-(3-Carbamoyl-phenyl)-acrylic acid methyl ester] |
| 100 | NC(=O)c1cccc(/C=C/C(=O)OCCc2ccccc2)c1 [3-(3-Carbamoyl-phenyl)-acrylic acid phenethyl ester] |
| > 71 | NC(=O)c1cccc(/C=C/C(=O)c2ccco2)c1 [3-(3-Furan-2-yl-3-oxo-propenyl)-benzamide] |
| 28 | NC(=O)c1cccc(/C=C/C(=O)c2ccccc2)c1 [3-(3-Oxo-3-phenyl-propenyl)-benzamide] |
| 50 | NC(=O)c1cccc(/C=C/C(=O)c2ccccn2)c1 [3-(3-Oxo-3-pyridin-2-yl-propenyl)-benzamide] |
| 32 | CC(=O)C=Cc1cccc(C(N)=O)c1 [3-(3-Oxo-but-1-enyl)-benzamide] |
| > 320 | CCOC(=O)/C=C/c1ccc(OCc2ccccc2)c(C(N)=O)c1 [3-(4-Benzyloxy-3-carbamoyl-phenyl)-acrylic acid ethyl ester] |
| > 100 | CCOC(=O)/C=C/c1cc(C(N)=O)ccc1C [3-(5-Carbamoyl-2-methyl-phenyl)-acrylic acid ethyl ester] |
| > 15 | CN(C)c1ccc(C(=O)/C=C/c2cccc(C(N)=O)c2)cc1 [3-[3-(4-Dimethylamino-phenyl)-3-oxo-propenyl]-benzamide] |
| > 22 | COc1ccc(C(=O)/C=C/c2cccc(C(N)=O)c2)cc1 [3-[3-(4-Methoxy-phenyl)-3-oxo-propenyl]-benzamide] |
| 2.5 | CCOC(=O)/C=C/c1cc(CN2CCN(c3ccccn3)CC2)cc(C(N)=O)c1 [3-[3-Carbamoyl-5-(4-pyridin-2-yl-piperazin-1-ylmethyl)-phenyl]-acrylic acid ethyl ester] |
| 1 | CCOC(=O)/C=C/c1cc(CN2CCN(c3ncccn3)CC2)cc(C(N)=O)c1 [3-[3-Carbamoyl-5-(4-pyrimidin-2-yl-piperazin-1-ylmethyl)-phenyl]-acrylic acid ethyl ester] |
| 5.6 | CCOC(=O)/C=C/c1cc(CSc2nnc(-c3ccccn3)o2)cc(C(N)=O)c1 [3-[3-Carbamoyl-5-(5-pyridin-2-yl-[1,3,4]oxadiazol-2-ylsulfanylmethyl)-phenyl]-acrylic acid ethyl ester] |
| 0.6 | CCOC(=O)/C=C/c1cc(CN2CCN(c3ccccc3C#N)CC2)cc(C(N)=O)c1 [3-{3-Carbamoyl-5-[4-(2-cyano-phenyl)-piperazin-1-ylmethyl]-phenyl}-acrylic acid ethyl ester] |
| 5.8 | CCOC(=O)/C=C/c1cc(CN(CC)Cc2ccncc2)cc(C(N)=O)c1 [3-{3-Carbamoyl-5-[(ethyl-pyridin-4-ylmethyl-amino)-methyl]-phenyl}-acrylic acid ethyl ester] |
| 1.8 | CCOC(=O)/C=C/c1cc(CN2CCN(C(=O)OCC)CC2)cc(C(N)=O)c1 [4-[3-Carbamoyl-5-(2-ethoxycarbonyl-vinyl)-benzyl]-piperazine-1-carboxylic acid ethyl ester] |
